Experimental data published in patent publication US20080167282A1, “Use of Inhibitors of Steroid Activity for the Treatment of Substance Related Disorders” (priority 2005, published 2008).

Experiment: Study on the cocaine addiction: case report of a patient treated for hirsutism
Assay type: in vivo, human
Settings: cocaine user; 50 mg 1 cp daily; after 6 months of therapy (treatment lasted approximately 9 months)
Experimental: In the course of the follow up transaminases and hormones were assayed.

## CC(=O)O[C@]1(C(C)=O)CC[C@H]2[C@@H]3C=C(Cl)C4=CC(=O)[C@@H]5C[C@@H]5[C@]4(C)[C@H]3CC[C@@]21C [cyproterone acetate]
  cocaine use status during follow up: drug free
